Reference: patent US20260258038A1 (priority 2023, published 2026)

Tests used:
Pythium ultimum = Pythium ultimum / liquid culture (seedling damping off); format: cell-based; details: Globisporangium ultimum, liquid culture in PDB, 24° C., 2-3 days after application, read-out: control of Pythium ultimum (inhibition of growth, photometric)
Protocol: Pythium ultimum/Liquid Culture (Seedling Damping Off)
Mycelia fragments and oospores of a newly grown liquid culture of the fungus are directly mixed into nutrient broth (PDB potato dextrose broth). After placing a (DMSO) solution of test compound into a microtiter plate (96-well format), the nutrient broth containing the fungal mycelia/spore mixture is added. The test plates are incubated at 24° C. and the inhibition of growth is determined photometrically 2-3 days after application.

Plasmopara viticola = assay: whole plant or invertebrate; format: in vivo; details: foliar, read-out: control of Plasmopara viticola (percent disease control compared to untreated)
Phytophthora infestans = assay: whole plant or invertebrate; format: in vivo; details: in Solanum lycopersicum, foliar, read-out: control of Phytophthora infestans (percent disease control compared to untreated)

COC(=O)Nc1ccc(-c2cnc3ccc(N(C)C(=O)c4ccc(F)c(OC)c4)cn23)cn1 [Compound 26, methyl N-[5-[6-[(4-fluoro-3-methoxy-benzoyl)-methyl-amino]imidazo[1,2-a]pyridin-3-yl]-2-pyridyl]carbamate]
≥ 80%: inhibition at 20 ppm (Pythium ultimum) | pest or weed control at 200 ppm (Plasmopara viticola) | pest or weed control at 200 ppm (Phytophthora infestans)

COC(=O)Nc1ccc(-c2cnc3c(C)cc(N(C)C(=O)c4ccc(Cl)c(C)c4)cn23)cn1 [Compound 41, methyl N-[5-[6-[(4-chloro-3-methyl-benzoyl)-methyl-amino]-8-methyl-imidazo[1,2-a]pyridin-3-yl]-2-pyridyl]carbamate]
≥ 80%: inhibition at 20 ppm (Pythium ultimum) | pest or weed control at 200 ppm (Plasmopara viticola) | pest or weed control at 200 ppm (Phytophthora infestans)

COC(=O)Nc1ccc(-c2cnc3c(C)cc(N(C)C(=O)c4ccc(F)cc4)cn23)cn1 [Compound 45, methyl N-[5-[6-[(4-fluorobenzoyl)-methyl-amino]-8-methyl-imidazo[1,2-a]pyridin-3-yl]-2-pyridyl]carbamate]
≥ 80%: inhibition at 20 ppm (Pythium ultimum) | pest or weed control at 200 ppm (Plasmopara viticola) | pest or weed control at 200 ppm (Phytophthora infestans)

COC(=O)Nc1ccc(-c2cnc3c(C)cc(N(C)C(=O)c4ccc(C#N)cc4)cn23)cn1 [Compound 47, methyl N-[5-[6-[(4-cyanobenzoyl)-methyl-amino]-8-methyl-imidazo[1,2-a]pyridin-3-yl]-2-pyridyl]carbamate]
≥ 80%: inhibition at 20 ppm (Pythium ultimum) | pest or weed control at 200 ppm (Plasmopara viticola) | pest or weed control at 200 ppm (Phytophthora infestans)

COC(=O)Nc1ccc(-c2cnc3c(C)cc(N(C)C(=O)c4ccc(Cl)cc4)cn23)cn1 [Compound 49, methyl N-[5-[6-[(4-chlorobenzoyl)-methyl-amino]-8-methyl-imidazo[1,2-a]pyridin-3-yl]-2-pyridyl]carbamate]
≥ 80%: inhibition at 20 ppm (Pythium ultimum) | pest or weed control at 200 ppm (Plasmopara viticola) | pest or weed control at 200 ppm (Phytophthora infestans)

COC(=O)Nc1ccc(-c2cnc3c(C)cc(N(C)C(=O)c4cccc(OC)c4)cn23)cn1 [Compound 53, methyl N-[5-[6-[(3-methoxybenzoyl)-methyl-amino]-8-methyl-imidazo[1,2-a]pyridin-3-yl]-2-pyridyl]carbamate]
≥ 80%: inhibition at 20 ppm (Pythium ultimum) | pest or weed control at 200 ppm (Plasmopara viticola) | pest or weed control at 200 ppm (Phytophthora infestans)

COC(=O)Nc1ccc(-c2cnc3c(C)cc(N(C)C(=O)c4ccc(F)cc4F)cn23)cn1 [Compound 54, methyl N-[5-[6-[(2,4-difluorobenzoyl)-methyl-amino]-8-methyl-imidazo[1,2-a]pyridin-3-yl]-2-pyridyl]carbamate]
≥ 80%: inhibition at 20 ppm (Pythium ultimum) | pest or weed control at 200 ppm (Plasmopara viticola) | pest or weed control at 200 ppm (Phytophthora infestans)

COC(=O)Nc1ccc(-c2cnc3c(C#N)cc(N(C)C(=O)c4ccc(F)c(OC)c4)cn23)cn1 [Compound 55, methyl N-[5-[8-cyano-6-[(4-fluoro-3-methoxy-benzoyl)-methyl-amino]imidazo[1,2-a]pyridin-3-yl]-2-pyridyl]carbamate]
≥ 80%: inhibition at 20 ppm (Pythium ultimum) | pest or weed control at 200 ppm (Plasmopara viticola) | pest or weed control at 200 ppm (Phytophthora infestans)

COC(=O)Nc1ccc(-c2cnc3c(C4CC4)cc(N(C)C(=O)c4ccc(F)c(OC)c4)cn23)cn1 [Compound 56, methyl N-[5-[8-cyclopropyl-6-[(4-fluoro-3-methoxy-benzoyl)-methyl-amino]imidazo[1,2-a]pyridin-3-yl]-2-pyridyl]carbamate]
≥ 80%: inhibition at 20 ppm (Pythium ultimum) | pest or weed control at 200 ppm (Plasmopara viticola) | pest or weed control at 200 ppm (Phytophthora infestans)

CCc1cc(N(C)C(=O)c2ccc(F)c(OC)c2)cn2c(-c3ccc(NC(=O)OC)nc3)cnc12 [Compound 57, methyl N-[5-[8-ethyl-6-[(4-fluoro-3-methoxy-benzoyl)-methyl-amino]imidazo[1,2-a]pyridin-3-yl]-2-pyridyl]carbamate]
≥ 80%: inhibition at 20 ppm (Pythium ultimum) | pest or weed control at 200 ppm (Plasmopara viticola) | pest or weed control at 200 ppm (Phytophthora infestans)

C=CCCc1cc(N(C)C(=O)c2ccc(F)c(OC)c2)cn2c(-c3ccc(NC(=O)OC)nc3)cnc12 [Compound 58, methyl N-[5-[8-but-3-enyl-6-[(4-fluoro-3-methoxy-benzoyl)-methyl-amino]imidazo[1,2-a]pyridin-3-yl]-2-pyridyl]carbamate]
≥ 80%: inhibition at 20 ppm (Pythium ultimum) | pest or weed control at 200 ppm (Plasmopara viticola) | pest or weed control at 200 ppm (Phytophthora infestans)

COC(=O)Nc1ccc(-c2cnc3c(Br)cc(N(C)C(=O)c4ccc(F)c(OC)c4)cn23)cn1 [Compound 60, methyl N-[5-[8-bromo-6-[(4-fluoro-3-methoxy-benzoyl)-methyl-amino]imidazo[1,2-a]pyridin-3-yl]-2-pyridyl]carbamate]
≥ 80%: inhibition at 20 ppm (Pythium ultimum) | pest or weed control at 200 ppm (Plasmopara viticola) | pest or weed control at 200 ppm (Phytophthora infestans)
